Laboratory results published in patent US20260297083A1, “SUBSTITUTED ACETYLENE COMPOUND DERIVATIVES AND THEIR PHARMACEUTICAL USE” (AVELOS THERAPEUTICS INC., priority 2023, published 2026).

Test system: DLD-1 BRCA2(−/−) Cell
Test: Cell viability assay (Resazurin) in DLD1-BRCA2 cells
Format: cell-based
Conditions: Homo sapiens, DLD-1, 336 h, 14 days, 1,500 cells/well, final DMSO 1%
Procedure, shortened: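 DLD1-BRCA2 KG cells seeded at 1,500/well (parental 600/well) in RPMI-1640 with 10% FBS, compound added after 4 h (1% DMSO), media replaced every 3-4 days over 14 days at 37° C. Viability read by resazurin (0.1 mg/ml, 4 h) fluorescence at Ex/Em 560/590 nm; IC50 fitted.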

Row | SMILES | IC50
1 | Cc1cc(C(F)(F)F)cc(N2C(=O)CC[C@H]2C(=O)N(CC#Cc2cncn2C)c2ccc(F)c(C)c2)n1 [Example 9, (S)-N-(4-fluoro-3-methylphenyl)-N-(3-(1-methyl-1H-imidazol-5-yl)prop-2-yn-1-yl)-1-(6-methyl-4-(trifluoromethyl)pyridin-2-yl)-5-oxopyrrolidine-2-carboxamide] | < 1000 nM
2 | Cc1cc(C(F)(F)F)cc(N2[C@H](C(=O)N(CC#Cc3cnc4c(c3)C(C)(C)N(C)C4=O)c3ccc(F)c(C)c3)CCS2(=O)=O)n1 [Example 99, (S)-N-(4-fluoro-3-methylphenyl)-2-(6-methyl-4-(trifluoromethyl)pyridin-2-yl)-N-(3-(5,5,6-trimethyl-7-oxo-6.7-dihydro-5H-pyrrolo[3,4-b]pyridin-3-yl)prop-2-yn-1-yl)isothiazolidine-3-carboxamide 1,1-dioxide] | 1100 to 5000 nM
3 | Cc1cc(C(F)(F)F)cc(N2[C@H](C(=O)N(CC#Cc3ccc(C(N)=O)nc3)c3ccc(F)c(C)c3)CCS2(=O)=O)n1 [Example 95, (S)-N-(3-(6-carbamoylpyridin-3-yl)prop-2-yn-1-yl)-N-(4-fluoro-3-methylphenyl)-2-(6-methyl-4-(trifluoromethyl)pyridin-2-yl)isothiazolidine-3-carboxamide 1,1-dioxide] | < 1000 nM
4 | Cc1cc(C(F)(F)F)cc(N2[C@H](C(=O)N(CC#Cc3ccc(N)nn3)c3ccc(F)c(C)c3)CN(C(C)C)S2(=O)=O)n1 [Example 110, (S)-N-(3-(6-aminopyridazin-3-yl)prop-2-yn-1-yl)-N-(4-fluoro-3-methylphenyl)-5-isopropyl-2-(6-methyl-4-(trifluoromethyl)pyridin-2-yl)-1,2,5-thiadiazolidine-3-carboxamide 1,1-dioxide] | 1100 to 5000 nM
5 | Cc1cc(C(F)(F)F)cc(N2[C@H](C(=O)N(CC#Cc3ccc(F)c(C(C)C)n3)c3ccc(F)c(C)c3)CCS2(=O)=O)n1 [Example 94, (S)-N-(4-fluoro-3-methylphenyl)-N-(3-(5-fluoro-6-isopropylpyridin-2-yl)prop-2-yn-1-yl)-2-(6-methyl-4-(trifluoromethyl)pyridin-2-yl)isothiazolidine-3-carboxamide 1,1-dioxide] | 1100 to 5000 nM
6 | Cc1cc(C(F)(F)F)cc(N2[C@H](C(=O)N(CC#Cc3ccc(F)cn3)c3ccc(F)c(C)c3)CCS2(=O)=O)n1 [Example 93, (S)-N-(4-fluoro-3-methylphenyl)-N-(3-(5-fluoropyridin-2-yl)prop-2-yn-1-yl)-2-(6-methyl-4-(trifluoromethyl)pyridin-2-yl)isothiazolidine-3-carboxamide 1,1-dioxide] | < 1000 nM
7 | Cc1cccc(N(CC#Cc2ccc(N)nn2)C(=O)[C@@H]2CN(C)S(=O)(=O)N2c2cc(C(F)(F)F)cc(C)n2)c1 [Example 107, (3S)-N-[3-(6-aminopyridazin-3-yl)prop-2-ynyl]-5-methyl-2-[6-methyl-4-(trifluoromethyl)-2-pyridyl]-N-(m-tolyl)-1,1-dioxo-1,2,5-thiadiazolidine-3-carboxamide] | 1100 to 5000 nM
8 | Cc1cc(C(F)(F)F)cc(N2[C@H](C(=O)N(CC#Cc3n[nH]c(=O)c4ccccc34)c3ccc(F)c(C)c3)CCS2(=O)=O)n1 [Example 101, (S)-N-(4-fluoro-3-methylphenyl)-2-(6-methyl-4-(trifluoromethyl)pyridin-2-yl)-N-(3-(4-oxo-3,4-dihydrophthalazin-1-yl)prop-2-yn-1-yl)isothiazolidine-3-carboxamide 1,1-dioxide] | 1100 to 5000 nM
9 | Cc1cc(C(F)(F)F)cc(N2[C@H](C(=O)N(CC#Cc3cnc(C#N)cn3)c3ccc(F)c(C)c3)CCS2(=O)=O)n1 [Example 59, (S)-N-(3-(5-cyanopyrazin-2-yl)prop-2-yn-1-yl)-N-(4-fluoro-3-methylphenyl)-2-(6-methyl-4-(trifluoromethyl)pyridin-2-yl)isothiazolidine-3-carboxamide 1,1-dioxide] | < 1000 nM
10 | Cc1cc(C(F)(F)F)cc(N2[C@H](C(=O)N(CC#Cc3cnc(NC(C)C)cn3)c3ccc(F)c(C)c3)CCS2(=O)=O)n1 [Example 36, (S)-N-(4-fluoro-3-methylphenyl)-N-(3-(5-(isopropylamino)pyrazin-2-yl)prop-2-yn-1-yl)-2-(6-methyl-4-(trifluoromethyl)pyridin-2-yl)isothiazolidine-3-carboxamide 1,1-dioxide] | < 1000 nM
11 | Cc1cc(C(F)(F)F)cc(N2[C@H](C(=O)N(CC#Cc3cccc(=O)n3C)c3ccc(F)c(C)c3)CCS2(=O)=O)n1 [Example 92, (S)-N-(4-fluoro-3-methylphenyl)-2-(6-methyl-4-(trifluoromethyl)pyridin-2-yl)-N-(3-(1-methyl-6-oxo-1,6-dihydropyridin-2-yl)prop-2-yn-1-yl)isothiazolidine-3-carboxamide 1,1-dioxide] | < 1000 nM
12 | Cc1cc(C(F)(F)F)cc(N2C(=O)CC[C@H]2C(=O)N(CC#CCN2CCN(c3ncccn3)CC2)c2ccc(F)c(C)c2F)n1 [Example 16, (S)—N-(2,4-difluoro-3-methylphenyl)-1-(6-methyl-4-(trifluoromethyl)pyridin-2-yl)-5-oxo-N-(4-(4-(pyrimidin-2-yl)piperazin-1-yl)but-2-yn-1-yl)pyrrolidine-2-carboxamide] | 1100 to 5000 nM
13 | CCN1CCN(c2cnc(C#CCN(C(=O)[C@@H]3CCS(=O)(=O)N3c3cc(C(F)(F)F)cc(C)n3)c3cc(C)ccc3F)cn2)CC1 [Example 51, (S)-N-(3-(5-(4-ethylpiperazin-1-yl)pyrazin-2-yl)prop-2-yn-1-yl)-N-(2-fluoro-5-methylphenyl)-2-(6-methyl-4-(trifluoromethyl)pyridin-2-yl)isothiazolidine-3-carboxamide 1,1-dioxide] | < 1000 nM
14 | Cc1cc(C(F)(F)F)cc(N2[C@H](C(=O)N(CC#Cc3ccc(N)nn3)c3ccc(F)c(C)c3)CN(C)S2(=O)=O)n1 [Example 109, (S)-N-(3-(6-aminopyridazin-3-yl)prop-2-yn-1-yl)-N-(4-fluoro-3-methylphenyl)-5-methyl-2-(6-methyl-4-(trifluoromethyl)pyridin-2-yl)-1,2,5-thiadiazolidine-3-carboxamide 1,1-dioxide] | 1100 to 5000 nM
15 | Cc1cc(C(F)(F)F)cc(N2[C@H](C(=O)N(CC#Cc3cnc(-n4ccnn4)cn3)c3ccc(F)c(C)c3)CCS2(=O)=O)n1 [Example 57, (S)-N-(3-(5-(1H-1,2,3-triazol-1-yl)pyrazin-2-yl)prop-2-yn-1-yl)-N-(4-fluoro-3-methylphenyl)-2-(6-methyl-4-(trifluoromethyl)pyridin-2-yl)isothiazolidine-3-carboxamide 1,1-dioxide] | < 1000 nM
16 | Cc1cc(C(F)(F)F)cc(N2[C@H](C(=O)N(CC#Cc3cnc(N4[C@H](C)CN(C(C)C)C[C@H]4C)cn3)c3ccc(F)c(C)c3)CCS2(=O)=O)n1 [Example 55, (S)-N-(4-fluoro-3-methylphenyl)-N-(3-(5-((2R,6R)-4-isopropyl-2,6-dimethylpiperazin-1-yl)pyrazin-2-yl)prop-2-yn-1-yl)-2-(6-methyl-4-(trifluoromethyl)pyridin-2-yl)isothiazolidine-3-carboxamide 1,1-dioxide] | < 1000 nM
17 | Cc1cc(C(F)(F)F)cc(N2[C@H](C(=O)N(CC#Cc3nccc(N4CCOCC4)n3)c3ccc(F)c(C)c3)CCS2(=O)=O)n1 [Example 80, (S)-N-(4-fluoro-3-methylphenyl)-2-(6-methyl-4-(trifluoromethyl)pyridin-2-yl)-N-(3-(4-morpholinopyrimidin-2-yl)prop-2-yn-1-yl)isothiazolidine-3-carboxamide 1,1-dioxide] | < 1000 nM
18 | Cc1cc(C(F)(F)F)cc(N2[C@H](C(=O)N(CC#Cc3cncc(C(=O)N4CC5CCC(C4)O5)n3)c3ccc(F)c(C)c3)CCS2(=O)=O)n1 [Example 71, (3S)-N-(3-(6-(8-oxa-3-azabicyclo[3.2.1]octane-3-carbonyl)pyrazin-2-yl)prop-2-yn-1-yl)-N-(4-fluoro-3-methylphenyl)-2-(6-methyl-4-(trifluoromethyl)pyridin-2-yl)isothiazolidine-3-carboxamide 1,1-dioxide] | < 1000 nM
19 | Cc1cccc(N(CC#Cc2cnc(N)cn2)C(=O)[C@@H]2CN(C)S(=O)(=O)N2c2cc(C(F)(F)F)cc(C)n2)c1 [Example 108, (S)-N-(3-(5-aminopyrazin-2-yl)prop-2-yn-1-yl)-5-methyl-2-(6-methyl-4-(trifluoromethyl)pyridin-2-yl)-N-(m-tolyl)-1,2,5-thiadiazolidine-3-carboxamide 1,1-dioxide] | 1100 to 5000 nM
20 | Cc1cc(C(F)(F)F)cc(N2[C@H](C(=O)N(CC#Cc3cncc(C(=O)N4CC5CCC(C4)N5)n3)c3ccc(F)c(C)c3)CCS2(=O)=O)n1 [Example 73, (3S)-N-(3-(6-(3,8-diazabicyclo[3.2.1]octane-3-carbonyl)pyrazin-2-yl)prop-2-yn-1-yl)-N-(4-fluoro-3-methylphenyl)-2-(6-methyl-4-(trifluoromethyl)pyridin-2-yl)isothiazolidine-3-carboxamide 1,1-dioxide] | < 1000 nM
21 | Cc1cc(C(F)(F)F)cc(N2C(=O)CC[C@H]2C(=O)N(CC#Cc2ccc(N)nn2)c2ccc(F)c(Cl)c2F)n1 [Example 4, (S)-N-(3-(6-aminopyridazin-3-yl)prop-2-yn-1-yl)-N-(3-chloro-2,4-difluorophenyl)-1-(6-methyl-4-(trifluoromethyl)pyridin-2-yl)-5-oxopyrrolidine-2-carboxamide] | < 1000 nM
22 | Cc1cc(C(F)(F)F)cc(N2[C@H](C(=O)N(CC#Cc3cnc(N4CC5(COC5)C4)cn3)c3ccc(F)c(C)c3)CCS2(=O)=O)n1 [Example 38, (S)-N-(3-(5-(2-oxa-6-azaspiro[3.3]heptan-6-yl)pyrazin-2-yl)prop-2-yn-1-yl)-N-(4-fluoro-3-methylphenyl)-2-(6-methyl-4-(trifluoromethyl)pyridin-2-yl)isothiazolidine-3-carboxamide 1,1-dioxide] | 1100 to 5000 nM
23 | Cc1cc(C(F)(F)F)cc(N2[C@H](C(=O)N(CC#Cc3cnc(-c4ncon4)cn3)c3ccc(F)c(C)c3)CCS2(=O)=O)n1 [Example 58, (S)-N-(3-(5-(1,2,4-oxadiazol-3-yl)pyrazin-2-yl)prop-2-yn-1-yl)-N-(4-fluoro-3-methylphenyl)-2-(6-methyl-4-(trifluoromethyl)pyridin-2-yl)isothiazolidine-3-carboxamide 1,1-dioxide] | < 1000 nM
